Legend:
[1] = system: C. difficile strain VPI 10463; experiment: Acute murine C. difficile infection model; assay type: in vivo, C57BL/6 mice; conditions: for weight loss, time course: acute infection, days after infection, 8 animals per group
Text: In a hospital environment, C. difficile infection occurs when the patient receives an antibiotic treatment that disrupts the normal gut microflora and is exposed to C. difficile spores. The patient often fails to mount a protective immune response against the acute C. difficile infection. (Rupnik, Wilcox et al. 2009). To study the acute C. difficile infection, we established a murine C. difficile infection model. Details of the infection model are provided in the “Experimental Protocol” (below).
In brief, female C57BL/6 mice were administered the following antibiotics: colistin (0.042 units/mL), gentamicin (0.035 mg/mL), kanamycin (0.4 mg/mL), metronidazole (0.215 mg/mL) and vancomycin (0.045 mg/mL) in drinking water for 3 days. The administered antibiotics disrupted the normal gut microflora in mice. On the 4th day, mice received oral administration of 0.5 mL volume containing ˜100 spores produced from a virulent clinical C. difficile isolate (strain VPI 10463). In this acute murine C. difficile infection model, we observed a similar time course of infection when compared to that of clinical patients.
Using the developed murine C. difficile infection model (Example 67), we evaluated our test compounds for their efficacy in reducing weight loss and gut inflammation caused by the acute C. difficile infection. We tested the efficacy of Example 6a and Example 5ae and used eight (8) animals in each group.
We further tested the efficacy of the Example 6a, Example 5ae, Example 4cl, and Example 5al compounds by PO administration. Vancomycin was used as a positive control. Three (3) experiments were performed utilizing a total of five (5) to sixteen (16) animals in each group.
C. difficile strain VPI 10463 was grown for four (4) days in 10 ml of BHI in a Bactron anaerobic workstation (Shel Lab). The culture was centrifuged at 2,700 g for 10 minutes. The bacterial pellet was washed with 10 mL of PBS and the centrifugation was repeated. The pellet was then re-suspended in 10 mL of PBS, incubated at 56° C. for 10 minutes, and then was frozen at −20° C. until used. Titers of spore stocks were determined by serial dilution and plating onto BHI and with 1% taurocholate and counting of colonies after incubation for 24 hours at 37° C. using the GasPak EZ Anaerobe Pouch System.
We utilized an established C. difficile murine infection model (Chen, Katchar et al. 2008). To render them susceptible to infection, female C57BL/6 mice (˜10 weeks old and weighing ˜20 g) were administered the following antibiotics (Sigma Aldrich) in drinking water for 3 days (Days −6 to −3): colistin (0.042 units/mL), gentamicin (0.035 mg/mL), kanamycin (0.4 mg/mL), metronidazole (0.215 mg/mL) and vancomycin (0.045 mg/mL). Based upon an expected water consumption of 100 mL/kg/day, the approximate doses of these antibiotics will be as follows: colistin (4.2 units/kg/day), gentamicin (3.5 mg/kg/day), kanamycin (40 mg/kg/day), metronidazole (21.5 mg/kg/day) and vancomycin (4.5 mg/kg/day). The animals were provided with regular drinking water for two days (Day −2 and Day −1), and the next day (Day 0) they were administered clindamycin phosphate (1 mg/mL solution in PBS) at 10 mL/kg by intraperitoneal injection, for a final dose of 10 mg/kg body weight. The following day (Day 1), they were orally gavaged with ˜100 spores in a 0.5 ml volume.
Compounds were administered beginning ˜8 hours after infection, and the animals were dosed twice per day for two days (Days 2-3) with a total of four doses. Compounds were prepared as 5 mg/mL suspensions in 20% PEG-400, 0.4% carboxymethyl cellulose and 0.2% Tween 80 and administered at a dose of 10 mL/kg, for a final dose of 50 mg/kg body weight.
Animals were observed and weighed two (2) to (3) times daily. Animals that were obviously moribund or had lost >20% of their initial body weight were euthanized. Sub-groups of animals were euthanized four (4) hours after the final compound dose (52 hours after infection). […]

C. difficile strain 630 = assay type: in vivo, Golden Syrian hamsters
[2] = biological target: T1, C. difficile full-length toxin TcdB (Clostridioides difficile, UniProt P18177); experiment: cell-based
T1 construct: C. difficile full-length toxins (TcdA or TcdB); purchased EMD Millipore 616377

[3] = Plasma concentrations in the murine C. difficile toxin model (LC/MS); assay type: in vivo; conditions: mice, over four hours
Protocol: We monitored the plasma concentrations of Example 6a following the IR, PO and IP administrations in the murine C. difficile toxin model (Example 63). Plasma concentrations of Example 6a were determined with the use of high pressure liquid chromatography (HPLC) and mass spectrometry (MS) following the administration of Example 6a. Plasma concentration curve of Example 6a was plotted over four hours (FIG. 5). […] It is noted that reduction of the IL-1β and MPO levels as well as improved colon histopathology correlates with the plasma concentrations of Example 6a.
To determine plasma concentration of compounds, blood (˜200 μl) was drawn by retro-orbital bleed, and compound concentration was determined by liquid chromatography (LC)/mass spectrometry (MS)(AB Sciex API-3000 LC/MS/MS system).

T1 sequence (P18177 2-2366 limits assumed): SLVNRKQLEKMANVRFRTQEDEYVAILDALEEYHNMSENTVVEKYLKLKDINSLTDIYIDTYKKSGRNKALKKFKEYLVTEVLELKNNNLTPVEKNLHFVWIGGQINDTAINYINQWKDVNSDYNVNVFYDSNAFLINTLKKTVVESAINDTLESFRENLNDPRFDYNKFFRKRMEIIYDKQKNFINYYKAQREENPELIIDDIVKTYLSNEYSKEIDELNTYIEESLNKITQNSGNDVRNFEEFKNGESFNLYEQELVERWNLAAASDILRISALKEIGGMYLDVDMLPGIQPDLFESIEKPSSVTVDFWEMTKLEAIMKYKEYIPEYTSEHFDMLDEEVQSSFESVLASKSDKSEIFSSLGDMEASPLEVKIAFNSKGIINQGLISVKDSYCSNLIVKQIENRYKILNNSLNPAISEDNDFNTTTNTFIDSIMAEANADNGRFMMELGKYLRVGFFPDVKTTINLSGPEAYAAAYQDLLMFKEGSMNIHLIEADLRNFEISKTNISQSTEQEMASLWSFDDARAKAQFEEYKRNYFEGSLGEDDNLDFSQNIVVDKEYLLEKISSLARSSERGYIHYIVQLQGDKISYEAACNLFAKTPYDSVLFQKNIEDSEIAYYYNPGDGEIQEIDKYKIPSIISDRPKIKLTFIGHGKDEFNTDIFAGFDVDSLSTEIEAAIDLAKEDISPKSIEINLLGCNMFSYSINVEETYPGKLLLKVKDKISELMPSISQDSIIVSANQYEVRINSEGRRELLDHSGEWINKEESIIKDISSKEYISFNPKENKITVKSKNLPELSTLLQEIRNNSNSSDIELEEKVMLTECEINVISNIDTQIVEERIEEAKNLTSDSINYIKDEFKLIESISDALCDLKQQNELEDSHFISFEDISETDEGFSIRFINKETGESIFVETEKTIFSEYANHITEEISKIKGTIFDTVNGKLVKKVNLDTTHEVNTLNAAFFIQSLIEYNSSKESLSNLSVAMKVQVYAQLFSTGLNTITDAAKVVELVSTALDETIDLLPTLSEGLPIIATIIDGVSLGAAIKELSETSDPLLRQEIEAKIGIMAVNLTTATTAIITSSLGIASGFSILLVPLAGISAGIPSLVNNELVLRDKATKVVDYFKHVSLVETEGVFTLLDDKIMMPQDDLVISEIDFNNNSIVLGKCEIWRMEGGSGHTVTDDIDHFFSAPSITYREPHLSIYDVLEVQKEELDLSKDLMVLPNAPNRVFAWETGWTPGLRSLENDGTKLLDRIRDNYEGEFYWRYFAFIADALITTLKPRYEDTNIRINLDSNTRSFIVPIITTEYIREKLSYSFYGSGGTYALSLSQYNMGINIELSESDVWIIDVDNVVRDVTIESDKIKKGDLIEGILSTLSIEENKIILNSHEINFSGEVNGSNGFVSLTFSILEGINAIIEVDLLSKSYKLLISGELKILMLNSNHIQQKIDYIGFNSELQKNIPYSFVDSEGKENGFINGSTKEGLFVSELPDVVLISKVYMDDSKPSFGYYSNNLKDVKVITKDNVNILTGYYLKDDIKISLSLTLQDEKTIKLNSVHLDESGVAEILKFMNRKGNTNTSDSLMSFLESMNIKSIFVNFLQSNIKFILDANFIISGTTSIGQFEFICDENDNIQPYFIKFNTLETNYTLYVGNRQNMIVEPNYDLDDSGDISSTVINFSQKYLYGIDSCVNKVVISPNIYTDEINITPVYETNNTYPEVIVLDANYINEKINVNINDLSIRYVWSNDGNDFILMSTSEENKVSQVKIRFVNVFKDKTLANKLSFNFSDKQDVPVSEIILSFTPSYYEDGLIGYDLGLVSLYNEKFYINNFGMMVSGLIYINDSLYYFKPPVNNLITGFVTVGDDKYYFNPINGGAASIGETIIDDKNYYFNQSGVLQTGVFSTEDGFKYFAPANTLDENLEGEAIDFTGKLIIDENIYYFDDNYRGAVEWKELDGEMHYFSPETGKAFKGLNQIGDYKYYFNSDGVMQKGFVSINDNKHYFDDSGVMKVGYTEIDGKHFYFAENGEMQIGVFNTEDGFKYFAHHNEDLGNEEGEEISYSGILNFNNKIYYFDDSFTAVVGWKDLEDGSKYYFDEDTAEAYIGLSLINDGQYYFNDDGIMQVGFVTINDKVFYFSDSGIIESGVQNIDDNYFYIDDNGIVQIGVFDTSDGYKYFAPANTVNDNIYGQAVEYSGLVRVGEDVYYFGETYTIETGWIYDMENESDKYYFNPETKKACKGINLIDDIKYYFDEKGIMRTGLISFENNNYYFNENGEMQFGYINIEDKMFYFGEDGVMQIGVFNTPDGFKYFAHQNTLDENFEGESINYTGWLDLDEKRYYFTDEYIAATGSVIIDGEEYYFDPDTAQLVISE

Row | SMILES | toxin effect on colon length ([1]; PO, 52 hours after infection) | weight loss, time course [1] | survival until Day 10 (C. difficile strain 630; Example 5ae 50 mg/kg PO twice per day for 7 days) [%] | median survival time / protection from mortality (C. difficile strain 630; PO twice per day, Example 5ae 50 mg/kg 7 days, vancomycin 5 mg/kg 5 days) | IC50 [2] [µM] | plasma concentration ([3]; IP administration, compared to IR) | plasma concentration ([3]; IR administration) | plasma concentration ([3]; PO administration, compared to IR)
1 | O=C(Nc1ccc(C(F)(F)F)cn1)c1ccc(CN2C(=O)c3ccc(Cl)cc3NC(=O)[C@H]2Cc2ccccn2)cc1Cl [Example 5ae, (R)-2-Chloro-4-((8-chloro-2,5-dioxo-3-(pyridin-2-ylmethyl)-2,3-dihydro-1H-benzo[e][1,4]diazepin-4(5H)-yl)methyl)-N-(5-(trifluoromethyl)pyridin-2-yl)benzamide] | significantly reduced the toxin effect on colon length | significantly reduced weight loss 2.5 and 3.0 days after infection | 70 | significantly improved the median survival time | 0.1 to 0.999 |  |  | 
2 | COc1ccc(NC(=O)c2ccc(CN3C(=O)c4ccc(Cl)cc4NC(=O)[C@H]3Cc3ccccn3)cc2F)nc1 [Example 6a, (R)-4-((8-Chloro-2,5-dioxo-3-(pyridin-2-ylmethyl)-2,3-dihydro-1H-benzo[e][1,4]diazepin-4(5H)-yl)methyl)-2-fluoro-N-(5-methoxypyridin-2-yl)benzamide] |  | significantly reduced weight loss 2.25, 2.5 and 3.0 days after infection |  |  | < 0.1 | significantly higher plasma concentrations | low plasma concentrations | significantly higher plasma concentrations

Source: patent US10669242B2 (priority 2016, dated 2020)
